Results on 20 compounds are retold here after patent publication US11655217B2, “Pyrazole MAGL inhibitors” (H. Lundbeck A/S, priority 2017, dated 2023).

One test has as its target MAGL (Mus musculus (Mouse), UniProt O35678). The test can be described thus: Mouse brain proteomes from inhibitor treated mice (oral gavage, sacrificed 4 h after administration, ABPP analysis). As to conditions: 5 mg/kg oral gavage.
In a further test the target is FAAH (Mus musculus (Mouse), UniProt O08914). The test can be described thus: Mouse brain proteomes from inhibitor treated mice (oral gavage, sacrificed 4 h after administration, ABPP analysis), FAAH. As to conditions: 5 mg/kg oral gavage.
Chain of FAAH (O08914 whole entry): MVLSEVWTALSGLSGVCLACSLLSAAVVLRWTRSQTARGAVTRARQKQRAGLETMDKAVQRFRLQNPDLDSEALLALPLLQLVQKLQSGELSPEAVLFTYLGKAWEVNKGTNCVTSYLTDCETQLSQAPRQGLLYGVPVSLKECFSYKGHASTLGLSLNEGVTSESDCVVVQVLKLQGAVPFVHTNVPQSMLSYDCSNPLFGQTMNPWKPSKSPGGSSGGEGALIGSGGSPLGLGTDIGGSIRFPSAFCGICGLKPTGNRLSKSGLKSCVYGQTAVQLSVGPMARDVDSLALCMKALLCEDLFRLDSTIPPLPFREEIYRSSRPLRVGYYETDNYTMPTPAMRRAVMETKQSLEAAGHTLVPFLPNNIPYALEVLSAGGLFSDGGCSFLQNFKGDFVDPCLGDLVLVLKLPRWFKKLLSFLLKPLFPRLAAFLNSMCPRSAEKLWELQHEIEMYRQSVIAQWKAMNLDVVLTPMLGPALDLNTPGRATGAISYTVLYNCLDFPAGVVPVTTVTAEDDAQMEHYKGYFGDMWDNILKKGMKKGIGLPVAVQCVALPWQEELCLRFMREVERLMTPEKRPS

Chain of MAGL (O35678 whole entry): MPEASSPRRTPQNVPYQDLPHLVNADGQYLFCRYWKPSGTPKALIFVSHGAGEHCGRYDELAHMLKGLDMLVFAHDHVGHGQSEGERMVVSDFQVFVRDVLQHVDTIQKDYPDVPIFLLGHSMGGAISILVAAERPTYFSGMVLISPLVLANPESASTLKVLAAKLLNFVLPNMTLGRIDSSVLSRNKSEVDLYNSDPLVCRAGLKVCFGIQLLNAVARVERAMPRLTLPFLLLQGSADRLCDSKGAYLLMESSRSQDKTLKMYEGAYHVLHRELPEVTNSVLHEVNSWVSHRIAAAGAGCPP
Description for FAAH: (§1) Preparation of Mouse Brain Proteomes from Inhibitor Treated Mice.
(§2) Inhibitors were administered to wild-type C57Bl/6J by oral gavage in a vehicle of polyethylene glycol.
Description for MAGL: as §1, §2

In the case of `O=C(O)c1ccn(C(=O)N2C[C@H]3C[C@H](OCc4cccc(C(F)(F)F)c4)C[C@H]3C2)n1` [Example 157, 1-(trans-5-((3-(trifluoromethyl)benzyl)oxy)octa-hydrocyclopenta[c]pyrrole-2-carbonyl)-1H-pyrazole-3-carboxylic acid], at MAGL, the “MAGL % inh. 5 mg/kg (mouse)” value is “D (% inhibition is greater than or equal to 0% and less than 25%)”. The “FAAH % inh. 5 mg/kg (mouse)” value on FAAH is “D (% inhibition is greater than or equal to 0% and less than 25%)”.
In the case of `NC(=O)C1CCN(c2cc(C(F)(F)F)ccc2CN2CCN(C(=O)n3ccc(C(=O)O)n3)CC2)CC1` [Example 113, 1-(4-(2-(4-carbamoylpiperidin-1-yl)-4-(trifluoromethyl)benzyl)piperazine-1-carbonyl)-1H-pyrazole-3-carboxylic acid], the “MAGL % inh. 5 mg/kg (mouse)” value at MAGL is “D (% inhibition is greater than or equal to 0% and less than 25%)”. In addition, at FAAH, the “FAAH % inh. 5 mg/kg (mouse)” value is “D (% inhibition is greater than or equal to 0% and less than 25%)”.
On to `O=C(O)c1ccn(C(=O)N2CCN(Cc3cccc(Oc4cc(C(F)(F)F)ccn4)c3)CC2)n1` [Example 57, 1-(4-(3-((4-(trifluoromethyl)pyridin-2-yl)oxy)benzyl)piperazine-1-carbonyl)-1H-pyrazole-3-carboxylic acid], for which, on MAGL, the “MAGL % inh. 5 mg/kg (mouse)” value is “D (% inhibition is greater than or equal to 0% and less than 25%)”. The “FAAH % inh. 5 mg/kg (mouse)” value on FAAH is “D (% inhibition is greater than or equal to 0% and less than 25%)”.
In the case of `O=C(O)c1ccn(C(=O)N2CCN(Cc3ccc(C(F)(F)F)cc3N3CCOCC3)CC2)n1` [Example 3, 1-(4-(2-Morpholino-4-(trifluoromethyl)benzyl)piperazine-1-carbonyl)-1H-pyrazole-3-carboxylic Acid], the “MAGL % inh. 5 mg/kg (mouse)” value at MAGL is “D (% inhibition is greater than or equal to 0% and less than 25%)”. Further, on FAAH, the “FAAH % inh. 5 mg/kg (mouse)” value is “D (% inhibition is greater than or equal to 0% and less than 25%)”.
As for `Cc1c(CO[C@H]2C[C@@H]3CN(C(=O)n4ccc(C(=O)O)n4)C[C@@H]3C2)cccc1C(F)(F)F` [Example 159, 1-(trans-5-((2-methyl-3-(trifluoromethyl)benzyl)oxy)octa-hydrocyclopenta[c]pyrrole-2-carbonyl)-1H-pyrazole-3-carboxylic acid], the “MAGL % inh. 5 mg/kg (mouse)” value at MAGL is “D (% inhibition is greater than or equal to 0% and less than 25%)”. Besides, on FAAH, the “FAAH % inh. 5 mg/kg (mouse)” value is “D (% inhibition is greater than or equal to 0% and less than 25%)”.
Regarding `O=C(O)c1ccn(C(=O)N2CCN(Cc3ccc(C(F)(F)F)cc3N3CCN(C4CC4)CC3)CC2)n1` [Example 6, 1-(4-(2-(4-Cyclopropylpiperazin-1-yl)-4-(trifluoromethyl)benzyl)piperazine-1-carbonyl)-1H-pyrazole-3-carboxylic Acid], the “MAGL % inh. 5 mg/kg (mouse)” value at MAGL was “D (% inhibition is greater than or equal to 0% and less than 25%)”. Besides, the “FAAH % inh. 5 mg/kg (mouse)” value on FAAH is “D (% inhibition is greater than or equal to 0% and less than 25%)”.
On to `O=C(O)c1ccn(C(=O)N2CCN(Cc3ccc(C(F)(F)F)cc3N3CC4COCC4C3)CC2)n1` (stereo not shown) [Example 106, 1-(4-(2-(tetrahydro-1H-furo[3,4-c]pyrrol-5(3H)-yl)-4-(trifluoromethyl)benzyl)piperazine-1-carbonyl)-1H-pyrazole-3-carboxylic acid], for which the “MAGL % inh. 5 mg/kg (mouse)” value at MAGL is “D (% inhibition is greater than or equal to 0% and less than 25%)”. The “FAAH % inh. 5 mg/kg (mouse)” value on FAAH is “D (% inhibition is greater than or equal to 0% and less than 25%)”.
On to `O=C(O)c1ccn(C(=O)N2C[C@H]3C[C@H](OCc4ccc(Oc5ccc(Cl)cc5)cc4)C[C@H]3C2)n1` [Example 55, 1-(trans-5-((4-(4-chlorophenoxy)benzyl)-oxy)octahydrocyclo-penta-[c]pyrrole-2-carbonyl)-1H-pyrazole-3-carboxylic acid], for which the “MAGL % inh. 5 mg/kg (mouse)” value on MAGL is “D (% inhibition is greater than or equal to 0% and less than 25%)”. In addition, the “FAAH % inh. 5 mg/kg (mouse)” value at FAAH is “D (% inhibition is greater than or equal to 0% and less than 25%)”.
Take `O=C(O)c1ccn(C(=O)N2CCN(Cc3ccc(C(F)(F)F)cc3N3CC[C@H](F)C3)CC2)n1` [Example 92, (S)-1-(4-(2-(3-fluoropyrrolidin-1-yl)-4-(trifluoromethyl)benzyl)-piperazine-1-carbonyl)-1H-pyrazole-3-carboxylic acid]: the “MAGL % inh. 5 mg/kg (mouse)” value at MAGL is “D (% inhibition is greater than or equal to 0% and less than 25%)”. Further, the “FAAH % inh. 5 mg/kg (mouse)” value on FAAH was “D (% inhibition is greater than or equal to 0% and less than 25%)”.
Regarding `C[C@@H]1CCCN1c1cc(C(F)(F)F)ccc1CN1CCN(C(=O)n2ccc(C(=O)O)n2)CC1` [Example 95, (R)-1-(4-(2-(2-methylpyrrolidin-1-yl)-4-(trifluoromethyl)benzyl)piperazine-1-carbonyl)-1H-pyrazole-3-carboxylic acid], at MAGL, the “MAGL % inh. 5 mg/kg (mouse)” value was “D (% inhibition is greater than or equal to 0% and less than 25%)”. The “FAAH % inh. 5 mg/kg (mouse)” value at FAAH is “D (% inhibition is greater than or equal to 0% and less than 25%)”.
Turning to `Cc1c(CN2CCN(C(=O)n3ccc(C(=O)O)n3)CC2)[nH]c2ccc(Cl)cc12` [Example 188, 1-(4-((5-chloro-3-methyl-1H-indol-2-yl)methyl)piperazine-1-carbonyl)-1H-pyrazole-3-carboxylic acid], the “MAGL % inh. 5 mg/kg (mouse)” value at MAGL was “D (% inhibition is greater than or equal to 0% and less than 25%)”. For the same compound, on FAAH, the “FAAH % inh. 5 mg/kg (mouse)” value was “D (% inhibition is greater than or equal to 0% and less than 25%)”.
As for `O=C(O)c1ccn(C(=O)N2CCN(Cc3cc4cc(Cl)ccc4s3)CC2)n1` [Example 187, 1-(4-((5-chlorobenzo[b]thio-phen-2-yl)methyl)piperazine-1-carbonyl)-1H-pyrazole-3-carboxylic acid], the “MAGL % inh. 5 mg/kg (mouse)” value at MAGL is “D (% inhibition is greater than or equal to 0% and less than 25%)”. The “FAAH % inh. 5 mg/kg (mouse)” value at FAAH was “D (% inhibition is greater than or equal to 0% and less than 25%)”.
For the compound `O=C(O)c1ccn(C(=O)N2CCN(Cc3ccc(Cl)cc3N3C4CCC3COC4)CC2)n1` [Example 105, 1-(4-(2-(3-oxa-8-azabicyclo[3.2.1]octan-8-yl)-4-chlorobenzyl)piper-azine-1-carbonyl)-1H-pyrazole-3-carboxylic acid], the “MAGL % inh. 5 mg/kg (mouse)” value on MAGL is “D (% inhibition is greater than or equal to 0% and less than 25%)”. Moreover, the “FAAH % inh. 5 mg/kg (mouse)” value at FAAH is “D (% inhibition is greater than or equal to 0% and less than 25%)”.
Turning to `O=C(O)c1ccn(C(=O)N2CC3CN(Cc4ccc(N5CCCC5)cc4C(F)(F)F)CC3C2)n1` (stereo not shown) [Example 123, 1-(5-(4-(pyrrolidin-1-yl)-2-(trifluoromethyl)benzyl)octahydro-pyrrolo[3,4-c]pyrrole-2-carbonyl)-1H-pyrazole-3-carboxylic acid], the “MAGL % inh. 5 mg/kg (mouse)” value on MAGL is “D (% inhibition is greater than or equal to 0% and less than 25%)”. Moreover, the “FAAH % inh. 5 mg/kg (mouse)” value at FAAH was “D (% inhibition is greater than or equal to 0% and less than 25%)”.
As for `O=C(O)c1ccn(C(=O)N2CCN(Cc3cccc(Cl)c3N3C4CCC3COC4)CC2)n1` [Example 212, 1-(4-(2-(3-oxa-8-azabicyclo[3.2.1]octan-8-yl)-3-chlorobenzyl)piper-azine-1-carbonyl)-1H-pyrazole-3-carboxylic acid], the “MAGL % inh. 5 mg/kg (mouse)” value on MAGL is “D (% inhibition is greater than or equal to 0% and less than 25%)”. Moreover, the “FAAH % inh. 5 mg/kg (mouse)” value on FAAH is “D (% inhibition is greater than or equal to 0% and less than 25%)”.
Take `O=C(O)c1ccn(C(=O)N2CCN(Cc3cccc(Cl)c3N3CC4COCC4C3)CC2)n1` (stereo not shown) [Example 211, 1-(4-(3-chloro-2-(tetrahydro-1H-furo[3,4-c]pyrrol-5(3H)-yl)benzyl)piperazine-1-carbonyl)-1H-pyrazole-3-carboxylic acid]: the “MAGL % inh. 5 mg/kg (mouse)” value at MAGL was “D (% inhibition is greater than or equal to 0% and less than 25%)”. On FAAH, the “FAAH % inh. 5 mg/kg (mouse)” value is “D (% inhibition is greater than or equal to 0% and less than 25%)”.
Regarding `O=C(O)c1ccn(C(=O)N2CCC3(CCCN3Cc3cc(Cl)cc(C(F)(F)F)c3)CC2)n1` [Example 86, 1-(1-(3-chloro-5-(trifluoromethyl)benzyl)-1,8-diazaspiro[4.5]decane-8-carbonyl)-1H-pyrazole-3-carboxylic acid], at MAGL, the “MAGL % inh. 5 mg/kg (mouse)” value was “D (% inhibition is greater than or equal to 0% and less than 25%)”. Besides, the “FAAH % inh. 5 mg/kg (mouse)” value on FAAH is “D (% inhibition is greater than or equal to 0% and less than 25%)”.
For `O=C(O)c1ccn(C(=O)N2CCC(Oc3ccc(Cl)cc3N3CCCC3)CC2)n1` [Example 11, 1-(4-(4-Chloro-2-(pyrrolidin-1-yl)phenoxy)piperidine-1-carbonyl)-1H-pyrazole-3-carboxylic Acid], on MAGL, the “MAGL % inh. 5 mg/kg (mouse)” value was “D (% inhibition is greater than or equal to 0% and less than 25%)”. Moreover, the “FAAH % inh. 5 mg/kg (mouse)” value on FAAH was “D (% inhibition is greater than or equal to 0% and less than 25%)”.
For the compound `O=C(O)c1ccn(C(=O)N2CCN(Cc3ccc(C(F)(F)F)cc3N3CCCC3)CC2)n1` [Example 83, 1-(4-(2-(pyrrolidin-1-yl)-4-(trifluoromethyl)benzyl)piperazine-1-carbonyl)-1H-pyrazole-3-carboxylic acid], the “MAGL % inh. 5 mg/kg (mouse)” value on MAGL is “D (% inhibition is greater than or equal to 0% and less than 25%)”. Further, the “FAAH % inh. 5 mg/kg (mouse)” value at FAAH was “D (% inhibition is greater than or equal to 0% and less than 25%)”.
Turning to `CN(Cc1ccc(C(F)(F)F)cc1N1CCOCC1)C1(C)CCN(C(=O)n2ccc(C(=O)O)n2)CC1` [Example 4, 1-(4-Methyl-4-(methyl(2-morpholino-4-(trifluoromethyl)benzyl)amino)piperidine-1-carbonyl)-1H-pyrazole-3-carboxylic Acid], at MAGL, the “MAGL % inh. 5 mg/kg (mouse)” value is “D (% inhibition is greater than or equal to 0% and less than 25%)”. Also, the “FAAH % inh. 5 mg/kg (mouse)” value on FAAH was “D (% inhibition is greater than or equal to 0% and less than 25%)”.
